Experimental data: patent US20260109712A1, “RIFAMYCINS FOR NONTUBERCULOUS MYCOBACTERIA” (priority 2022, published 2026)
In brackets after ≈: the same amount, converted by molar mass.

Tests used:
[1] = system: Δarr M. abscessus; test: MIC assay, isogenic arr-deleted strain; format: cell-based, Mycobacterium abscessus; settings: Table 10
Procedure, shortened: (§1)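 Two-fold, ten-point dilutions in 7H9 with 2% DMSO; mid-log culture diluted to OD600=0.1 (1×10^7 CFU/mL). Incubated 3 days at 37 °C, shaking 110 RPM; growth = Day 3 minus Day 0 OD600, expressed as percentage of drug-free growth and plotted against concentration. Two biological replicates.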

[2] = system: Mycobacterium abscessus; test: MIC against Mycobacterium abscessus (strain not given); format: cell-based; settings: Table 13; read-out: Mab MIC
[3] = system: M. abscessus ATCC 19977; test: MIC assay in 96-well plate format, wild-type strain; format: cell-based, Mycobacterium abscessus; settings: for MICWT: Table 10; for MIC: Table 15, heterocyclic aromatic carbamates, read-out: WT Mab MIC
Procedure, shortened: as §1

[4] = Plasma protein binding assay (rapid equilibrium dialysis); format: in vitro ADME
Experimental: DMSO stocks were spiked into plasma to a concentration of 10,000 ng/mL. 200 μL of spiked plasma was pipetted into the sample chamber of the rapid equilibrium dialysis (RED) cartridge. 350 μL of PBS was added to the adjacent cartridge. The plate containing the RED was sealed and incubated at 37° C. on the thermomixer at 300 RPM for 4 h. After incubation, 50 μL aliquots of plasma were removed and added to 50 μL of blank plasma in a deep well plate (1:1). Similarly, 50 μL aliquots of PBS were removed and added to 50 μL of blank plasma. This created an identical matrix between buffer and non-buffer samples. Samples were processed and quantified as specified in the LC-MS/MS analytical method.

[5] = Mouse pharmacokinetics studies; format: in vivo, CD-1 mice; settings: for AUCp.o.: po; for C-25 deacylation i.v. / C-25 deacylation p.o.: AUC25-O-desacetyl RFB/AUCcompound × 100%, n.d. = undetectable
Experimental: Blood was captured in CB300 blood collection tubes containing K2EDTA and stored on ice. Plasma was recovered after centrifugation and stored at −80° C. until analyzed by high pressure liquid chromatography coupled to tandem mass spectrometry (LC-MS/MS). Pharmacokinetic parameters were calculated using non-compartmental pharmacokinetic analysis. […] Extracts were vortexed for 5 minutes and centrifuged at 4000 RPM for 5 minutes. 75 μL of supernatant was transferred for LC-MS/MS analysis and diluted with 75 μL of Milli-Q deionized water. Rifabutin was purchased from Carbosynth. C25-desacetyl rifabutin and rifabutin-d7 were purchased from Toronto Research Chemical. Verapamil was purchased from Sigma-Aldrich. […] Multiple-reaction monitoring of parent/daughter transitions in electrospray positive-ionization mode was used to quantify all analytes. […] Data processing was performed using Analyst software (version 1.6.2; Applied Biosystems Sciex).

[6] = p.o. doses of 10 mg/kg, Table 12

| Compound | MICΔorr [1] [µM] | MIC [2] [µM] | MICWT [3] [µM] | ƒu [4] [%] | plasma unbound fraction ([4]; plasma) [%] | plasma unbound fraction ([4]; Table 10) [%] | also measured |
| --- | --- | --- | --- | --- | --- | --- | --- |
| COc1ccc(C(=O)O[C@H]2[C@H](C)[C@H](O)[C@H](C)[C@@H](O)[C@@H](C)/C=C/C=C(\C)C(=O)NC3=C4NC5(CCN(CC(C)C)CC5)N=C4c4c(c(O)c(C)c5c4C(=O)[C@@](C)(O/C=C/[C@H](OC)[C@H]2C)O5)C3=O)cc1 [UMN10] | 0.065 | 0.06 (≈ 0.0563 µg/mL) | 0.06 | 0.02 | 0 | – | – |
| CO[C@H]1/C=C/O[C@@]2(C)Oc3c(C)c(O)c4c(c3C2=O)C2=NC3(CCN(CC(C)C)CC3)NC2=C(NC(=O)/C(C)=C/C=C/[C@H](C)[C@H](O)[C@@H](C)[C@@H](O)[C@@H](C)[C@H](OC(=O)c2ccc(F)cc2)[C@@H]1C)C4=O [UMN11] | 0.069 | 0.13 (≈ 0.121 µg/mL) | 0.13 | 0.02 | 0.02 | – | – |
| CO[C@H]1/C=C/O[C@@]2(C)Oc3c(C)c(O)c4c(c3C2=O)C2=NC3(CCN(CC(C)C)CC3)NC2=C(NC(=O)/C(C)=C/C=C/[C@H](C)[C@H](O)[C@@H](C)[C@@H](O)[C@@H](C)[C@H](OC(=O)c2ccc(Cl)cc2)[C@@H]1C)C4=O [UMN12] | 0.22 | 0.13 (≈ 0.123 µg/mL) | 0.13 | 0.01 | 0.01 | – | – |
| CO[C@H]1/C=C/O[C@@]2(C)Oc3c(C)c(O)c4c(c3C2=O)C2=NC3(CCN(CC(C)C)CC3)NC2=C(NC(=O)/C(C)=C/C=C/[C@H](C)[C@H](O)[C@@H](C)[C@@H](O)[C@@H](C)[C@H](OC(=O)c2ccc(C(F)(F)F)cc2)[C@@H]1C)C4=O [UMN13] | 0.66 | 0.24 (≈ 0.235 µg/mL) | 0.24 | 0 | 0 | – | – |
| CO[C@H]1/C=C/O[C@@]2(C)Oc3c(C)c(O)c4c(c3C2=O)C2=NC3(CCN(CC(C)C)CC3)NC2=C(NC(=O)/C(C)=C/C=C/[C@H](C)[C@H](O)[C@@H](C)[C@@H](O)[C@@H](C)[C@H](OC(=O)Nc2ccccc2)[C@@H]1C)C4=O [UMN14] | 0.042 | – | 0.027 | 0.1 | 0.08 | – | MIC [3]: 0.027 µM (≈ 0.025 µg/mL); ƒAUC/MIC ([5]; Table 18): 0.8; CL ([5]; mouse, in vivo): 2.40 mL/min/kg; F ([5]; mouse, in vivo): 38%; Vd ([5]; mouse, in vivo): 1.93 L/kg; AUCp.o. ([5]; mouse, in vivo): 25625 ng·h/mL |
| CO[C@H]1/C=C/O[C@@]2(C)Oc3c(C)c(O)c4c(c3C2=O)C2=NC3(CCN(CC(C)C)CC3)NC2=C(NC(=O)/C(C)=C/C=C/[C@H](C)[C@H](O)[C@@H](C)[C@@H](O)[C@@H](C)[C@H](OC(=O)c2cccc(-c3ccccc3)c2)[C@@H]1C)C4=O [UMN18] | 1.05 | 1.1 (≈ 1.08 µg/mL) | 1.10 | 0.01 | 0 | – | – |
| COC1C=COC2(C)Oc3c(C)c(O)c4c(c3C2=O)C2=NC3(CCN(CC(C)C)CC3)NC2=C(NC(=O)C(C)=CC=CC(C)C(O)C(C)C(O)C(C)C(OC(=O)N2CCOC(C)C2)C1C)C4=O (stereo not drawn) [UMN68] | 0.033 | – | 0.061 | – | – | 2.40 | – |
| CO[C@H]1/C=C/O[C@@]2(C)Oc3c(C)c(O)c4c(c3C2=O)C2=NC3(CCN(CC(C)C)CC3)NC2=C(NC(=O)/C(C)=C/C=C/[C@H](C)[C@H](O)[C@@H](C)[C@@H](O)[C@@H](C)[C@H](OC(=O)Nc2nncs2)[C@@H]1C)C4=O [UMN69] | 0.027 | – | 0.026 | 5.3 | 5.30 | – | MIC [3]: 0.026 µM (≈ 0.0242 µg/mL); ƒAUC/MIC ([5]; Table 18): 26.5; CL ([5]; mouse, in vivo): 6.19 mL/min/kg; F ([5]; mouse, in vivo): 45%; Vd ([5]; mouse, in vivo): 1.14 L/kg; AUCp.o. ([5]; mouse, in vivo): 12103 ng·h/mL |
| COC1C=COC2(C)Oc3c(C)c(O)c4c(c3C2=O)C2=NC3(CCN(CC(C)C)CC3)NC2=C(NC(=O)C(C)=CC=CC(C)C(O)C(C)C(O)C(C)C(OC(=O)N2CCOC(C)C2)C1C)C4=O (stereo not drawn) [UMN70] | 0.026 | – | 0.08 | – | – | 0.56 | – |
| CO[C@H]1/C=C/O[C@@]2(C)Oc3c(C)c(O)c4c(c3C2=O)C2=NC3(CCN(CC(C)C)CC3)NC2=C(NC(=O)/C(C)=C/C=C/[C@H](C)[C@H](O)[C@@H](C)[C@@H](O)[C@@H](C)[C@H](OC(=O)N2CCOC(C)(C)C2)[C@@H]1C)C4=O [UMN71] | 0.032 | – | 0.076 | – | – | 0.39 | – |
| CCOC(=O)C1CN(C(=O)O[C@H]2[C@H](C)[C@H](O)[C@H](C)[C@@H](O)[C@@H](C)/C=C/C=C(\C)C(=O)NC3=C4NC5(CCN(CC(C)C)CC5)N=C4c4c(c(O)c(C)c5c4C(=O)[C@@](C)(O/C=C/[C@H](OC)[C@H]2C)O5)C3=O)CCO1 (stereo partly drawn) [UMN72] | 0.040 | – | 0.082 | – | – | 0.75 | – |
| CCN1CCN(C(=O)O[C@H]2[C@H](C)[C@H](O)[C@H](C)[C@@H](O)[C@@H](C)/C=C/C=C(\C)C(=O)NC3=C4NC5(CCN(CC(C)C)CC5)N=C4c4c(c(O)c(C)c5c4C(=O)[C@@](C)(O/C=C/[C@H](OC)[C@H]2C)O5)C3=O)CC1 [UMN73] | 0.052 | – | 0.1 | – | – | 0.65 | – |
| CO[C@H]1/C=C/O[C@@]2(C)Oc3c(C)c(O)c4c(c3C2=O)C2=NC3(CCN(CC(C)C)CC3)NC2=C(NC(=O)/C(C)=C/C=C/[C@H](C)[C@H](O)[C@@H](C)[C@@H](O)[C@@H](C)[C@H](OC(=O)NCc2cn(Cc3ccccc3)nn2)[C@@H]1C)C4=O [UMN85] | 0.025 | – | 0.027 | – | – | 0.30 | – |
| CO[C@H]1/C=C/O[C@@]2(C)Oc3c(C)c(O)c4c(c3C2=O)C2=NC3(CCN(CC(C)C)CC3)NC2=C(NC(=O)/C(C)=C/C=C/[C@H](C)[C@H](O)[C@@H](C)[C@@H](O)[C@@H](C)[C@H](OC(=O)c2ncccn2)[C@@H]1C)C4=O [UMN92] | – | 0.057 (≈ 0.0519 µg/mL) | – | 9.8 | – | – | – |
| CO[C@H]1/C=C/O[C@@]2(C)Oc3c(C)c(O)c4c(c3C2=O)C2=NC3(CCN(CC(C)C)CC3)NC2=C(NC(=O)/C(C)=C/C=C/[C@H](C)[C@H](O)[C@@H](C)[C@@H](O)[C@@H](C)[C@H](OC(=O)c2cncs2)[C@@H]1C)C4=O [UMN93] | – | 0.057 (≈ 0.0522 µg/mL) | – | 1.6 | – | – | – |
| CO[C@H]1/C=C/O[C@@]2(C)Oc3c(C)c(O)c4c(c3C2=O)C2=NC3(CCN(CC(C)C)CC3)NC2=C(NC(=O)/C(C)=C/C=C/[C@H](C)[C@H](O)[C@@H](C)[C@@H](O)[C@@H](C)[C@H](OC(=O)Nc2ccncc2)[C@@H]1C)C4=O [UMN105] | – | – | – | 2.0 | – | – | MIC [3]: 0.025 µM (≈ 0.0231 µg/mL); CL ([5]; mouse, in vivo): 7.57 mL/min/kg; F ([5]; mouse, in vivo): 63%; Vd ([5]; mouse, in vivo): 3.78 L/kg; ƒAUC/MIC ([5]; mouse, in vivo): 9.4; AUCp.o. ([5]; mouse, in vivo): 14210 ng·h/mL |
| CO[C@H]1/C=C/O[C@@]2(C)Oc3c(C)c(O)c4c(c3C2=O)C2=NC3(CCN(CC(C)C)CC3)NC2=C(NC(=O)/C(C)=C/C=C/[C@H](C)[C@H](O)[C@@H](C)[C@@H](O)[C@@H](C)[C@H](OC(=O)c2cccnn2)[C@@H]1C)C4=O [UMN111] | – | 0.051 (≈ 0.0465 µg/mL) | – | 12.7 | – | – | – |
| CO[C@H]1/C=C/O[C@@]2(C)Oc3c(C)c(O)c4c(c3C2=O)C2=NC3(CCN(CC(C)C)CC3)NC2=C(NC(=O)/C(C)=C/C=C/[C@H](C)[C@H](O)[C@@H](C)[C@@H](O)[C@@H](C)[C@H](OC(=O)c2ccccc2)[C@@H]1C)C4=O [drawing 217] | – | – | – | – | – | – | plasma unbound fraction ([4]; Table 12): 0.03%; C-25 deacylation i.v. [5]: 0.03%; C-25 deacylation p.o. [5]: 0.008%; CL ([5]; Table 12): 2.4 mL/min/kg; Vd ([5]; Table 12): 2.9 L/kg; t1/2 ([5]; Table 12): 13.8 h; ƒAUC/MIC [5, 6]: 0.08 |
| CO[C@H]1/C=C/O[C@@]2(C)Oc3c(C)c(O)c4c(c3C2=O)C2=NC3(CCN(CC(C)C)CC3)NC2=C(NC(=O)/C(C)=C/C=C/[C@H](C)[C@H](O)[C@@H](C)[C@@H](O)[C@@H](C)[C@H](OC(=O)Nc2ccccc2)[C@@H]1C)C4=O [drawing 220] | – | – | – | – | – | – | plasma unbound fraction ([4]; Table 12): 0.0008%; C-25 deacylation i.v. [5]: 0.08%; C-25 deacylation p.o. [5]: 0.001%; CL ([5]; Table 12): 2.4 mL/min/kg; Vd ([5]; Table 12): 1.9 L/kg; t1/2 ([5]; Table 12): 9.3 h; ƒAUC/MIC [5, 6]: 0.43 |
| CO[C@H]1/C=C/O[C@@]2(C)Oc3c(C)c(O)c4c(c3C2=O)C2=NC3(CCN(CC(C)C)CC3)NC2=C(NC(=O)/C(C)=C/C=C/[C@H](C)[C@H](O)[C@@H](C)[C@@H](O)[C@@H](C)[C@H](OC(=O)c2cccnc2)[C@@H]1C)C4=O [drawing 222] | – | – | – | – | – | – | CL ([5]; Table 12): 3.0 mL/min/kg; Vd ([5]; Table 12): 1.6 L/kg; ƒAUC/MIC [5, 6]: 28.2 |
